Results published in US20110027185A1, “Methods of Screening for Anti-Angiogenic Compounds” (priority 2007, published 2011).

Assays:
[1] = system: WiDr cells induced angiogenesis; conditions: 1.8 mg/kg intraperitoneal injection, mouse dorsal air sac model; cited from earlier work
HUVEC [2] = assay: HUVEC cell migration (chemotaxis) assay, Boyden chamber (NCI); type: cell-based, human; conditions: Homo sapiens, 5 h
Description: Angiogenesis assays were provided by the NCI, details of the assay protocols are given below. In each assays TNP-470 and paclitaxel (Taxol®) were used as reference compounds. Migration was assessed using the 48-well Boyden chamber and 8 μm pore size collagen-coated (10 μg/mL rat tail collagen; Collaborative Laboratories) polycarbonate filters (Osmonics, Inc.). The bottom chamber wells received 27-29 μL of DMEM medium alone (baseline) or medium containing chemo-attractant (bFGF, VEGF or Swiss 3T3 cell conditioned medium). The top chambers received 45 μL of HUVEC cell suspension (1×10^6 cells/mL) prepared in DMEM+1% BSA with or without test compound. After 5 h incubation at 37° C., the membrane was rinsed in PBS, fixed and stained in Diff-Quick solutions. The filter was placed on a glass slide with the migrated cells facing down and cells on top were removed using a Kimwipe. The testing was performed in 4-6 replicates and five fields were counted from each well. Negative, unstimulated, control values were subtracted from stimulated control and drug treated values and data was plotted as mean migrated cell±S.D. The IC50 was calculated from the plotted data.

[3] = system: Lewis lung adenocarcinoma; conditions: Lewis lung adenocarcinoma model; cited from earlier work
FBP21 = target: T1, FBP21 (Homo sapiens, UniProt O75554); assay: Phage display biopanning with biotinylated bait, Human Colon Tumour Library; type: binding; conditions: SDS and E. coli elution
T1 construct: encode 99 amino acids in frame with the phage coat protein of which a segment of 83 residues share 100% homology with FBP21; purchased Novagen; host or cells: T7 phage amplified in E. coli BLT5403
T1 sequence (O75554 with tags, fused parts or gaps): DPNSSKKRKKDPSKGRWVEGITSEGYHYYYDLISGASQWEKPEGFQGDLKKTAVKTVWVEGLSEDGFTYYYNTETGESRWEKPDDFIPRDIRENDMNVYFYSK
Description: Streptavidin wells were incubated with 1 μM biotinylated probe at 4° C. overnight to prepare the wells for biopanning. After incubation, unbound biotinylated probe was removed from the well by washing with phosphate buffered saline (PBS). Wells were then blocked with blocking solution (3% skimmed milk in PBS) for at least one hour at room temperature. Blocked wells were then briefly washed with PBS and were ready for biopanning use. […] In the first round of biopanning, 0.15 mL of amplified phage library was added to an empty streptavidin coated well and incubated at room temperature for at least 1 hour. This step was included to deselect any phage displaying streptavidin binding proteins. After incubation, the phage were removed from the well and mixed with 50 μL 4× blocking solution (12% skimmed milk in PBS) and incubated at room temperature for at least one hour. 0.125 mL of blocked phage library was added to each pre-prepared biotinylated well and incubated at room temperature for at least one hour. […] After incubation, unbound phage were removed from the well with wash solution. The wash solution was varied depending on the round of biopanning. For first round of biopanning PBS1 was used. For subsequent rounds the stringency of the wash was increased by using sequentially PBS2, PBS3 and PBS4 (see Table I). […]

B16-BL6 melanoma cells = conditions: same dosage (1.8 mg/kg); cited from earlier work
capillary tube formation = conditions: rat aorta matrix culture model, cited from earlier work
[4] = system: VEGFxxx and VEGFxxxb expression in RPE cells; assay: VEGF isoform ELISA of media of treated RPE cells; type: cell-based; conditions: 0.5 μM or 5 μM, 72 hours
Description: Media was sampled after 72 hours treatment, and assessed for total VEGF and VEGFxxxb expression (see Bates et al., 2002, Woolard et al., 2004 and Varey et al., 2008 for methods).

[5] = system: PC-3 cell lines of human prostate cancer; conditions: cited from earlier work
HUVEC [6] = assay: HUVEC growth inhibition assay (NCI); type: cell-based, human; conditions: Homo sapiens, 72 h, crystal violet
Description: Angiogenesis assays were provided by the NCI, details of the assay protocols are given below. In each assays TNP-470 and paclitaxel (Taxol®) were used as reference compounds. HUVEC (1.5×10^3) were plated in a 96-well plate in 100 μL of EBM-2 (Clonetic #CC3162). […] On day 0, one plate was stained with 0.5% crystal violet in 20% methanol for 10 minutes, rinsed with water, and air-dried. The remaining plates were incubated for 72 h at 37° C. After 72 h, plates were stained with 0.5% crystal violet in 20% methanol, rinsed with water and air-dried. The stain was eluted with 1:1 solution of ethanol:0.1 M sodium citrate (including day 0 plate), and absorbance was measured at 540 nm with an ELISA reader (Dynatech Laboratories). Day 0 absorbance was subtracted from the 72 h plates and data was plotted as percentage of control proliferation (vehicle treated cells).

[7] = system: human umbilical vein endothelial cells (HUVEC); conditions: cited from earlier work
[8] = system: protein synthesis in the cultured rat cells; conditions: cited from earlier work
[9] = system: WiDr cell lines of human colon cancer; conditions: cited from earlier work
HUVEC [10] = assay: HUVEC cord formation assay on matrigel (NCI); type: cell-based, human; conditions: Homo sapiens, 24 h
Description: Angiogenesis assays were provided by the NCI, details of the assay protocols are given below. In each assays TNP-470 and paclitaxel (Taxol®) were used as reference compounds. Matrigel (60 μL of 10 mg/mL; Collaborative Lab #35423) was placed in each well of an ice-cold 96-well plate. The plate was allowed to sit at room temperature for 15 minutes then it was incubated at 37° C. for 30 minutes to permit the matrigel to polymerize. In the mean time, HUVEC were prepared in EGM-2 (Clonetic #CC3162) at a concentration of 2×10^5 cells/mL. […] The cells (500 μL) and the drug at 2 times concentration (500 μL) were mixed and 200 μL of this suspension was placed in duplicate on the polymerized matrigel. After 24 h incubation, triplicate pictures were taken for each concentration using a Bioquant Image Analysis system. Drug effect (IC50) is assessed compared to untreated controls by measuring the length of cords formed and number of junctions.

In the case of `C[C@@H]1C[C@H](C)C[C@H](C)[C@@H](O)CC(=O)O[C@H]([C@@H]2CCC[C@H]2C(=O)O)C/C=C/C=C(/C#N)[C@H](O)[C@@H](C)C1` [Borrelidin], the “increment of vascular volume induced by WiDr cells” value [1] is listed as “significantly reduce the increment of vascular volume”, the IC50 (HUVEC [2]) is listed as 0.063 µM and the “propagation of metastatic nodules after removal of the primary tumour” value [3] is listed as “weakly inhibited”. The “identification of FBP21 fragment by biopanning (binding)” value (FBP21) was “consistently identified an FBP21 fragment”, the “formation of spontaneous lung metastases of B16-BL6 melanoma cells” value (B16-BL6 melanoma cells) was “effective for the inhibition of the formation of spontaneous lung metastases” and the “inhibition of capillary tube formation, IC50” value (capillary tube formation) was 0.4 ng/mL. The IC50 (capillary tube formation; read-out: inhibition of capillary tube formation, IC50) was 0.0008 µM, the “VEGFxxx expression (ELISA)” value [4] was “significant downregulation” and the “VEGFxxxb expression (ELISA)” value [4] was “significant upregulation”. The “effect against PC-3 cell lines” value [5] was “also against PC-3 cell lines”, the IC50 (HUVEC [6]) was 0.00325 µM and the “anti-proliferative activity towards HUVEC, IC50” value ([7]; cell growth assay) was 6 ng/mL. The “HUVEC anti-proliferative IC50 weaker than anti-angiogenesis activity” value ([7]; measured in the same medium) was 15 fold, the “anti-angiogenesis IC50 lower than IC50 for inhibition of protein synthesis” value [8] was 50 fold and the “inhibition of protein synthesis, IC50” value ([8]; cultured rat cells) was 20 ng/mL. For the same compound, the “effect against WiDr cell lines” value [9] was “effective against WiDr cell lines” and the IC50 (HUVEC [10]) was 0.0465 µM.
